One block for each molecule: values may come before it.
Legend:
[1] = Association (partition) with model membranes (LUVs POPE:POPC:POPS 45:35:20); format: physicochemical; conditions: aqueous phase to model lipid bilayer
Protocol: The model membranes with a phospholipid composition representative of that of the native membranes (POPE:POPC:POPS 45:35 20) were prepared from stock solutions of the required lipids in chloroform or in chloroform/methanol (87/13, v/v), as described before. The solvent-free lipid residue was hydrated at 40 °C with previously heated simplified ATPase assay buffer (with all components except Ouabain and DTT). Large Unilamelar Vesicles were prepared by extrusion through two-staked polycarbonate filters (100 nm pore diameter), and the size of the LUVs was analyzed by dynamic light scattering (Zetasizer Nano ZS, Malvern, UK) being close to the filter pore size.
(§1) The membranes were diluted to the chosen concentration with simplified ATPase assay buffer and warmed to 37 °C. The NBD amphiphiles were added from stocks in DMSO (final DMSO 1% v/v) by squirting the required volume into the membrane solution under gentle vortex. Fluorescence intensity was measured after 15 to 30 min incubation at 37 °C using a Cary Eclipse spectrofluorimeter (Varian, Singapore). The path length of the sample container was selected to guarantee that scattering at the excitation wavelength was smaller than 0.1 while maintaining a good signal/noise ratio (3, 5, or 10 mm).
(§2) The increase in fluorescence of the NBD amphiphiles when associated with the model membranes was well described by a simple partition (Equation (S3)). The low affinity of the less lipophilic amphiphiles for the native membranes required the use of high membrane concentrations, and the fluorescence was measured with the plate reader SpectraMax iD5 (Molecular Devices, Berkshire, UK), where the reading setup is not very sensitive to scatter. To guarantee that the high scatter intensity was not leading to artifacts in the measured fluorescence intensity of NBD–C4, titrations of NBD-C6 and NBD–C8 were also performed in the same plate. For these two latter amphiphiles, the results obtained for the partition coefficient were similar to those obtained for experiments with low scatter intensity. A small decrease in the fluorescence intensity from NBD–C8 was nevertheless observed at very high scatter intensities (OD ≥ 0.5), which was used to correct the signal from the less lipophilic amphiphiles, see Supplementary Information (Figure S5 and Equation (S4)). The molar volume considered for the lipid was 0.8 dm^3/mol, and 1.2 g/mL was considered for the density of the membrane proteins.
S3 – Partition of the NBD amphiphiles to lipid bilayers and native membranes
The fluorescence increase that accompanies the association of the NBD amphiphiles with the
model membra nes was well defined by a simple partition, equation S3.
If 1540 nm Lb= + S3, KVL[]
where IfW and If M are respec ti vel y the fluorescence intensity when all fluorescent amphiphile is
in the aqueous phase and ass oci ated with the membranes, LbK is the partition co eff icient P
between the aqueous and the lipid bilayer, V is the molar vo l u m e of the lipid when in the lipid L
bi l ayer, and [L] is the lipid concentration. […]

[2] = Partition coefficient to membrane proteins from Equations (1) and (2), all membrane proteins with equal affinity; format: physicochemical, High-Five insect cells; conditions: binding to all membrane proteins with equal affinity
Excerpt: (§3) From the partition coefficient obtained for the native membranes, KPW→M , and that for the model lipid bilayers, KPW→Lb , one can calculate the partition coefficient between the aqueous phase and the proteins in the membrane, KPW→P , and from the lipid bilayer to the proteins, KPLb→P , Equations (1) and (2), [40]. (1) KPW→M VM=KPW→PVP+KPW→Lb VLb (2) KPLb→P=KPW→P/KPW→Lb
(§4) In Equation (1) it is necessary to include the volume occupied by the proteins, and the values obtained will, therefore, depend on whether it is considered that the amphiphile may interact with all proteins in the membrane or with P–gp only.

[3] = Association (partition) of the NBD amphiphiles with native membranes, NBD fluorescence; format: physicochemical, High-Five insect cells; conditions: for KPW→M: aqueous phase to native membrane
Protocol: as §1, §2
S3 – Partition of the NBD amphiphiles to lipid bilayers and native membranes The fluorescence increase that accompanies the association of the NBD amphiphiles with the model membra nes was well defined by a simple partition, equation S3. […]
where IfW and If M are respec ti vel y the fluorescence intensity when all fluorescent amphiphile is in the aqueous phase and ass oci ated with the membranes, LbK is the partition co eff icient P between the aqueous and the lipid bilayer, V is the molar vo l u m e of the lipid when in the lipid L bi l ayer, and [L] is the lipid concentration.
To characterize the association of the NBD amphiphiles with the native membranes the whole membrane vo lume was considere d, including the lipid bilayer and the membrane proteins. For the ca se of the less lipophilic amphiphiles NBD‐C4 and NBD‐C6, a sig nif ica nt scatter from the […]
both to the larger size of the vesicles (ca 1 µm diameter, [1]) and to the high refractive index of the native membranes. The magnitude of the scatter effect was quantified through the best fit […]
partition to the membranes at co n ce ntrations where scatter is not significant. The modified […]
where s is the scatter correction factor for a given concentration of native membranes, If W and IfM are respectively the fluorescence intensity when all fluorescent amphiphile is in the aqueous phase and associated with the membranes, WMK → is the partition coefficient between the P aqueous phase and the native membrane, V is the molar volume of the lipid when in the L membrane and [L] the molar concentration of the membrane lipids, V is the vo lume occupied P by 1 g of membrane protein (assuming a density of 1.2 g/mL) and [P] is the protein concentration in units of ma ss per volume.
Typical results obtained for the variation of the fluorescence intensity at 540 nm of the NBD‐Cn fluorophores equilibrated with increasing concentrations of native membranes, are shown in figure S3. The fluorescence intensity was measured in black 96 well plates with the plate reader […]
SpectraMax iD5. The NBD‐Cn concentrations we re 0.5 µM for NBD‐C8 , 1 µM for NBD‐C6, and 2 µM for NBD‐C4, and the total volume per well was 150 µL. […]

[4] = cited from earlier work
P–gp = assay: Partition coefficient to membrane protein from Equations (1) and (2), binding to P–gp only; format: physicochemical, mouse; conditions: binding to the protein P–gp only
Excerpt: as §3, §4

[5] = e.g. 1 M trehalose; cited from earlier work
mP–gp [6] = target: T1, mP–gp (Mus musculus, UniProt P21447); assay: Photolabeling of P–gp with [125I]-IAAP / IAAP displacement; format: binding; conditions: concentration of 2 μM, positive control
T1 construct: made in house; host or cells: High-Five insect cells (Invitrogen), recombinant baculovirus; total membrane vesicles
Protocol: The native membranes of High-Five insect cells expressing mP–gp (1.0 mg/mL) were incubated at room temperature with the indicated concentrations of the inhibitor for 5 min. IAAP (5 to 7 nM) was later added, and the reaction mixture was further incubated for 5 min under subdued light. The samples were photocross-linked with 366 nm UV light for 10 min at room temperature, followed by electrophoresis and quantification, as described previously. The raw data are shown in the Supplementary Information (Figure S4). The results were first analyzed with the usual equation, considering the total concentration of IAAP and NBD amphiphile, as well as competitive inhibition of IAAP binding, see Supplementary Information (Equation (S2)). The dissociation constant considered for IAAP was taken from the literature, 412 nM [15]. The results were also analyzed with a formalism derived in this manuscript considering the distribution of the NBD amphiphile in the distinct environments (aqueous phase, lipid bilayer, and P–gp), the distribution of IAAP between the aqueous media and P–gp, and several equal and independent binding sites in P–gp’s binding pocket, Equation (10).
In this assay, in addition to the binding of the NBD amphiphiles to P–gp binding pocket, it is also necessary to consider the binding of IAAP. The concentration of IAAP used in the assay (5 nM) is several orders of magnitude smaller than that of the amphiphiles in study, and it is also smaller than the total concentration of P–gp (59 nM). Therefore, Equation (8) may be used to calculate the concentration of free ligand and protein. The fraction of IAAP bound to P–gp may then be calculated from Equation (10), where P^* is the concentration of P–gp available for IAAP binding. (10) IP/IT=−b−b^2−4ac/2aa=1; b=−1+KdIAAP/IT+P^*/IT; c=P^*/IT
The number of binding sites in P–gp binding pocket was varied from 1 to 5, and three situations were considered in the analysis: (i) full inhibition of IAAP binding when at least one NBD amphiphile is in the P–gp binding pocket ( i≥1 ), corresponding to P^*=P; (ii) inhibition of IAAP binding only when P–gp is fully saturated ( i=n ), corresponding to P^*=P+∑i=1n−1PLi; and (iii) an intermediate situation with IAAP displacement for i≥n−1 , corresponding to P^*=P+∑i=1n−2PLi .
The displacement of IAAP from P–gp binding pocket was calculated from Equation (11), where IP0 is the concentration of IAAP bound to P–gp in the absence of the NBD amphiphiles. (11) IAAP displacement %=100IP0−IP/IP0

mP–gp [7] = target: T1, mP–gp; parameters: method as in PMID 28283574; conditions: positive control; read-out: KI, inhibition of IAAP binding; cited from earlier work

T1 sequence (P21447 whole entry): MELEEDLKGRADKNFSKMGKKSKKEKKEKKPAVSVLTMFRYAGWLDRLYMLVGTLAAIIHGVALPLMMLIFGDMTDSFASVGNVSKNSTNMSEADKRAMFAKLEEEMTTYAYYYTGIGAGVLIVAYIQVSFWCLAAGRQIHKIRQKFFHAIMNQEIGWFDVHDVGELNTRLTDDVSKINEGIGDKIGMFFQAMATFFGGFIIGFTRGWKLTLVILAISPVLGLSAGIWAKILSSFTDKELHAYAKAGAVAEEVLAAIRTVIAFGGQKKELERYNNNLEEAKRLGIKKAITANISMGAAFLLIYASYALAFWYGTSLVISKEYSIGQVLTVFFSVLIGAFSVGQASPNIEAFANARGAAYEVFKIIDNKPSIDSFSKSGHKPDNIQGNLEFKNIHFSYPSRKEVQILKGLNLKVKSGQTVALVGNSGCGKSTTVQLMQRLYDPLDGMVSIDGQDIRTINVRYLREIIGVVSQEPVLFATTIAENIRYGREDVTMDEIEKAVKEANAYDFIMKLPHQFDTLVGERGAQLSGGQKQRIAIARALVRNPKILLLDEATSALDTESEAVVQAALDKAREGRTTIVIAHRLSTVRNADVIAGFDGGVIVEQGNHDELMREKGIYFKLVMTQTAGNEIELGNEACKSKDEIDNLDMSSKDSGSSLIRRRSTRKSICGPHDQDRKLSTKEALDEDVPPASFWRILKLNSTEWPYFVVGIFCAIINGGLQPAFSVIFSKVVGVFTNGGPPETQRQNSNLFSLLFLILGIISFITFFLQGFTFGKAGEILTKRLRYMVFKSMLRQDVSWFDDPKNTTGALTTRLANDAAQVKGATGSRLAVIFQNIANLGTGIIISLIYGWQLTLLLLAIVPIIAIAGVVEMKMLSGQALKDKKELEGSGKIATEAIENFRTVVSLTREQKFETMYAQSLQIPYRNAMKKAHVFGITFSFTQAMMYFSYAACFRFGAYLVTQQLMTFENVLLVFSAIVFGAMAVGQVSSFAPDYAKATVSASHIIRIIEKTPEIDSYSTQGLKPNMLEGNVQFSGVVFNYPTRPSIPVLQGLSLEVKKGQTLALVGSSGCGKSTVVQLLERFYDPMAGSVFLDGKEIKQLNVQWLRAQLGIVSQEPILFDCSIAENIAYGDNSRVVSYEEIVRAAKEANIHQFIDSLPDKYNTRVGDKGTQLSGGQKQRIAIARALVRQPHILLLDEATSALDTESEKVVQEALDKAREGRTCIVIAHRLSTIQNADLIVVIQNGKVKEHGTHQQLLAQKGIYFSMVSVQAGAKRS

Compound: CCCCCCNc1ccc([N+](=O)[O-])c2nonc12 [NBD-C6]
KPW→Lb ([1]; section: binding to all membrane proteins with equal affinity): 2.4 × 10^3 | KPW→Lb ([1]; section: binding to the protein P–gp only): 2.4 × 10^3 | KPW→P ([2]; aqueous phase to proteins): 1.0 × 10^3 | KPLb→P ([2]; lipid bilayer to proteins): 0.43 | LogKP, association with the native membranes ([3]; 37 °C, simplified ATPase assay buffer): 3.20 ± 0.26 | KPW→M ([3]; membrane volume = phospholipid bilayer and P–gp (binding to the protein P–gp only)): 3.9 × 10^3 | KPW→M ([3]; membrane volume = phospholipid bilayer and all proteins (binding to all membrane proteins with equal affinity)): 1.6 × 10^3 | LogKP, association with POPC bilayers [4]: 3.79 | KPW→P (P–gp; aqueous phase to protein): 1.0 × 10^5 | KPLb→P (P–gp; lipid bilayer to protein): 43

Compound: CCCCCCCCCCNc1ccc([N+](=O)[O-])c2nonc12 [NBD-C10]
increase of CAC in the presence of co-solvent [5]: 6 fold

Inhibition of IAAP binding (mP–gp [6]): efficient inhibition of IAAP binding
Compound: COc1cc2c(cc1OC)CN(CCc1ccc(NC(=O)c3cc(OC)c(OC)cc3NC(=O)c3cnc4ccccc4c3)cc1)CC2 [Tariquidar, reference compound]
Ki (mP–gp [7]): 200 nM
